Measured values as given in the NIST ThermoML archive (doi:10.1016/j.fluid.2005.06.010).
± gives the expanded uncertainty stated by the source.

Assay: xn = mol fraction of the nth substance listed
Settings: Fluid (supercritical or subcritical phases), Vibrating tube method

c1ccc2ccccc2c1 [naphthalene] + O=C=O
Settings	mass density [kg/m3]
318.11 K, 16084 kPa, x1 = 0.0093	785.19 ± 0.66
318.11 K, 16667 kPa, x1 = 0.0065	790.99 ± 0.68
318.11 K, 16960 kPa, x1 = 0.0093	796.88 ± 0.63
318.11 K, 17000 kPa, x1 = 0.0049	787.78 ± 0.65
318.11 K, 17635 kPa, x1 = 0.0065	803.78 ± 0.65
318.11 K, 17984 kPa, x1 = 0.0093	809.07 ± 0.61
318.11 K, 17995 kPa, x1 = 0.0049	800.44 ± 0.62
318.11 K, 18460 kPa, x1 = 0.0065	812.58 ± 0.64
318.11 K, 18977 kPa, x1 = 0.0049	811.61 ± 0.6
318.11 K, 18989 kPa, x1 = 0.0093	819.91 ± 0.59
318.11 K, 19176 kPa, x1 = 0.0065	820.58 ± 0.62
318.11 K, 19789 kPa, x1 = 0.0093	827.92 ± 0.58
318.11 K, 19904 kPa, x1 = 0.0065	827.96 ± 0.6
318.11 K, 20045 kPa, x1 = 0.0049	822.71 ± 0.59
318.11 K, 20953 kPa, x1 = 0.0093	838.54 ± 0.56
318.11 K, 20963 kPa, x1 = 0.0049	831.61 ± 0.57
318.11 K, 21000 kPa, x1 = 0.0065	838.23 ± 0.59
318.11 K, 21926 kPa, x1 = 0.0065	846.14 ± 0.57
318.11 K, 22004 kPa, x1 = 0.0049	840.84 ± 0.56
318.11 K, 22031 kPa, x1 = 0.0093	847.64 ± 0.55
318.11 K, 22694 kPa, x1 = 0.0093	852.96 ± 0.55
318.11 K, 22962 kPa, x1 = 0.0049	848.85 ± 0.55
318.11 K, 22968 kPa, x1 = 0.0065	854.56 ± 0.57
318.11 K, 23517 kPa, x1 = 0.0093	859.24 ± 0.54
318.11 K, 23867 kPa, x1 = 0.0065	861.51 ± 0.57
318.11 K, 24017 kPa, x1 = 0.0049	857.07 ± 0.54
318.11 K, 24931 kPa, x1 = 0.0093	869.34 ± 0.53
318.11 K, 24993 kPa, x1 = 0.0065	869.51 ± 0.55
318.13 K, 9447 kPa, x1 = 0.0038	467.84 ± 3.5
318.13 K, 9511 kPa, x1 = 0.0038	479.86 ± 3.5
318.13 K, 9624 kPa, x1 = 0.0038	500.05 ± 3.5
318.13 K, 9723 kPa, x1 = 0.0038	516.4 ± 3.4
318.13 K, 9815 kPa, x1 = 0.0038	530.29 ± 2.3
318.13 K, 10026 kPa, x1 = 0.0038	558.2 ± 2.1
318.13 K, 11028 kPa, x1 = 0.0038	638.56 ± 1.4
318.13 K, 12034 kPa, x1 = 0.0038	682.9 ± 1.1
318.13 K, 13013 kPa, x1 = 0.0038	712.68 ± 0.89
318.13 K, 14016 kPa, x1 = 0.0038	736.26 ± 0.79
318.13 K, 15020 kPa, x1 = 0.0038	755.47 ± 0.73
318.13 K, 15435 kPa, x1 = 0.0214	798.75 ± 0.68
318.13 K, 15510 kPa, x1 = 0.0214	799.63 ± 0.66
318.13 K, 15611 kPa, x1 = 0.0214	800.92 ± 0.63
318.13 K, 15832 kPa, x1 = 0.0214	803.59 ± 0.63
318.13 K, 16002 kPa, x1 = 0.0038	771.53 ± 0.68
318.13 K, 16016 kPa, x1 = 0.0214	805.76 ± 0.63
318.13 K, 16531 kPa, x1 = 0.0214	811.8 ± 0.64
318.13 K, 16555 kPa, x1 = 0.0204	810.95 ± 0.62
318.13 K, 17029 kPa, x1 = 0.0214	817.29 ± 0.62
318.13 K, 17033 kPa, x1 = 0.0038	786.19 ± 0.65
318.13 K, 17049 kPa, x1 = 0.0204	816.49 ± 0.62
318.13 K, 17588 kPa, x1 = 0.0204	822.21 ± 0.6
318.13 K, 18000 kPa, x1 = 0.0214	827.3 ± 0.59
318.13 K, 18021 kPa, x1 = 0.0038	798.72 ± 0.62
318.13 K, 18067 kPa, x1 = 0.0204	827.01 ± 0.59
318.13 K, 18584 kPa, x1 = 0.0204	832.05 ± 0.58
318.13 K, 19038 kPa, x1 = 0.0038	810.39 ± 0.6
318.13 K, 19046 kPa, x1 = 0.0214	837.22 ± 0.58
318.13 K, 19123 kPa, x1 = 0.0204	837.04 ± 0.58
318.13 K, 19537 kPa, x1 = 0.0204	840.73 ± 0.58
318.13 K, 20002 kPa, x1 = 0.0038	820.43 ± 0.59
318.13 K, 20016 kPa, x1 = 0.0214	845.63 ± 0.56
318.13 K, 20055 kPa, x1 = 0.0204	845.16 ± 0.56
318.13 K, 20564 kPa, x1 = 0.0204	849.36 ± 0.56
318.13 K, 21012 kPa, x1 = 0.0214	853.76 ± 0.55
318.13 K, 21027 kPa, x1 = 0.0038	830.26 ± 0.58
318.13 K, 21058 kPa, x1 = 0.0204	853.31 ± 0.55
318.13 K, 21568 kPa, x1 = 0.0204	857.24 ± 0.55
318.13 K, 22015 kPa, x1 = 0.0038	839.08 ± 0.56
318.13 K, 22015 kPa, x1 = 0.0214	861.35 ± 0.54
318.13 K, 22022 kPa, x1 = 0.0204	860.61 ± 0.54
318.13 K, 22506 kPa, x1 = 0.0204	864.13 ± 0.54
318.13 K, 23014 kPa, x1 = 0.0038	847.4 ± 0.55
318.13 K, 24022 kPa, x1 = 0.0038	855.31 ± 0.55
318.13 K, 25018 kPa, x1 = 0.0038	862.63 ± 0.54
318.14 K, 19647 kPa, x1 = 0.0237	845.05 ± 0.56
318.14 K, 19720 kPa, x1 = 0.0237	845.71 ± 0.56
318.14 K, 19769 kPa, x1 = 0.0237	846.15 ± 0.56
318.14 K, 19815 kPa, x1 = 0.0237	846.6 ± 0.56
318.14 K, 19868 kPa, x1 = 0.0237	847.1 ± 0.56
318.14 K, 19940 kPa, x1 = 0.0237	847.81 ± 0.56
318.14 K, 20042 kPa, x1 = 0.0237	848.76 ± 0.56
318.14 K, 20202 kPa, x1 = 0.0237	850.16 ± 0.56
318.14 K, 20409 kPa, x1 = 0.0237	851.93 ± 0.56
318.14 K, 20762 kPa, x1 = 0.0237	854.79 ± 0.55
